The target of assay [1] is T1, cytoplasmic kinase domain of human IGF-1R (IGF-1R-GST) (Homo sapiens, UniProt P08069).
T1 construct: cytoplasmic kinase domain of human IGF-1R (amino acids 964-1370); GST (glutathione-S-transferase); made in house; host or cells: High Five insect cells (Invitrogen)
Briefly: Insulin-like growth factor-1 receptor (IGF-1R) kinase assay (DELFIA). Format: biochemical. The following applies: IGF-1R-GST kinase activity, read-out: IGF1R IC50. In outline:
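GST-tagged IGF-1R cytoplasmic kinase domain phosphorylates pEY with biotinylated pEY for 40 min at RT; EDTA stop. Product captured on streptavidin, detected with europium anti-phosphotyrosine antibody by DELFIA time-resolved fluorescence; IC50 from inhibition curves.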

For assay [2], the system named is TC-71 (Ewing's sarcoma) cells. Briefly: Cell proliferation assay, TC-71 (Alamar Blue). It is filed as cell-based. The conditions noted are these: 72 h with compound, EC50 ranges as class symbols. The procedure: Cell Proliferation Assays
Compounds were tested for their anti-proliferative effects in the TC-71 (Ewing's sarcoma) and HCT 116 (colorectal carcinoma) cancer cell lines in vitro. Published scientific data has described that interference with the Insulin-like Growth Factor-1 Receptor (IGF-1R) signaling pathway reduces the proliferation of TC-71 cells. Therefore TC-71 cells served as a positive control cell line for monitoring the activity of compounds against IGF-1R-mediated cell proliferation. […] Therefore the HCT 116 cell line served as a negative control.
2000 TC-71 cells or 1000 HCT 116 cells were seeded per well in 180 μL IMDM+10% foetal calf serum (FCS)+ penicillin/streptomycin into 96-well microtitre plates. The plates were placed in a cell culture incubator (37° C. in a humidified atmosphere of […]/5 CO2) overnight. The following day, serial dilutions of compounds, prepared in duplicates, were transferred onto the cell layers (controls without compound). The cells were cultivated for a further 72 h in the cell culture incubator. 20 μL of Alamar Blue™ (Serotec Ltd, Düsseldorf, Germany) was added to each well and the plates incubated for 7 h in the cell culture incubator. Fluorescence (extinction wavelength of 544 nm and emission at 590 nm) was then measured and the normalized data fitted by iterative calculation with a sigmoidal curve analysis program (Graph Pad Prism) with a variable Hill slope to determine the IC50 values.

T1 sequence (P08069 964-1367 limits assumed): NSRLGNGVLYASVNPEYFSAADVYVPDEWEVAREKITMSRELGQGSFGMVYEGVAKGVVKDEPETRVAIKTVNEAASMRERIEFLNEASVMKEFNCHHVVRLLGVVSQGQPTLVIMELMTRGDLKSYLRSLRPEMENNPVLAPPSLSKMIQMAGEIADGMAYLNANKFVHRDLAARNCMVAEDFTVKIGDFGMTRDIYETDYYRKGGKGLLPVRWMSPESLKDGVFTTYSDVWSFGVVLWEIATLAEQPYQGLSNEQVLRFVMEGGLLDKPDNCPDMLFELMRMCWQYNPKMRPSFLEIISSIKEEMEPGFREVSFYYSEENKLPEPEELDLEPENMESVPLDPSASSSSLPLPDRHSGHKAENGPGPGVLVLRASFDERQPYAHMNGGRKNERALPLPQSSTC

On to `CN1CCC(n2cc(Nc3ncc(Cl)c(NCc4cccc5c4C(C)(C)C(=O)N5)n3)cn2)CC1` [Example I-102], for which the IC50 in assay [1] came to 4 nM. Also, in assay [2], the EC50 fell in the range of 50 to 250 nM.
The corresponding values for `COCCN1CCCC(c2ccc(Nc3ncc(Cl)c(NCc4cccc5c4C(C)(C)C(=O)N5)n3)c(C)c2)C1` (racemic) [Example I-373] are 0.4 nM and 50 to 250 nM.
`Cc1cc(C2CCN(CC(C)(C)O)CC2)ccc1Nc1ncc(C(F)(F)F)c(NCc2cccc3c2C(C)(C)C(=O)N3)n1` [Example I-309]: the IC50 in assay [1] was determined as 1 nM. The EC50 in assay [2] is under 50 nM.
The corresponding values for `COc1cc(C2CCCN(CC(C)(C)O)C2)ccc1Nc1ncc(Br)c(NCc2cccc3c2C(C)(C)C(=O)N3)n1` (racemic) [Example I-322] are 0.5 nM and under 50 nM.
As to `Cc1c(Nc2ncc(Cl)c(NCc3cccc4c3C(C)(C)C(=O)N4)n2)ccc(C2CCN(CC(C)(C)O)CC2)c1C` [Example I-339], the IC50 in assay [1] amounted to 2.1 nM. Moreover, the EC50 in assay [2] is under 50 nM.
The corresponding values for `COCCN1CCC(c2ccc(Nc3ncc(Cl)c(NCc4cccc5c4C(C)(C)C(=O)N5)n3)cc2)CC1` [Example I-204] are 2 nM and 50 to 250 nM.
The corresponding values for `CNC1(C(=O)N2CCCC(c3ccc(Nc4ncc(Br)c(NCc5cccc6c5C(C)(C)C(=O)N6)n4)c(C)c3)C2)CC1` (racemic) [Example I-291] are 6 nM and 50 to 250 nM.
Turning to `Cc1cc(C2CCN(CCO)CC2)ccc1Nc1ncc(Br)c(NCc2cccc3c2C(C)(C)C(=O)N3)n1` [Example I-214], the IC50 in assay [1] amounted to 0.62 nM. In addition, in assay [2], the EC50 was under 50 nM.
For `COCCN1CCCC(c2ccc(Nc3ncc(C(F)(F)F)c(NCc4cccc5c4C(C)(C)C(=O)N5)n3)c(OC)c2)C1` (racemic) [Example I-350], in that order: 0.5 nM and under 50 nM.
Take `Cc1cc(C2CCCN(CCO)C2)ccc1Nc1ncc(C(F)(F)F)c(NCc2cccc3c2C(C)(C)C(=O)N3)n1` (racemic) [Example I-354]: the IC50 in assay [1] was 1 nM. For the same compound, the EC50 in assay [2] is under 50 nM.
For `Cc1cc(C2CCN(C)CC2)ccc1Nc1ncc(Cl)c(NCc2cccc3c2C(C)(C)C(=O)N3)n1` [Example I-332], the IC50 in assay [1] was determined as 1 nM. Also, the concentration for a half-maximal effect (EC50) in assay [2] is under 50 nM.
Take `Cc1cc(C2CCN(S(C)(=O)=O)CC2)ccc1Nc1ncc(Cl)c(NCc2cccc3c2C(C)(C)C(=O)N3)n1` [Example I-203]: the IC50 in assay [1] came to 14 nM. For the same compound, the EC50 in assay [2] was 250 to 3000 nM.
For `Cc1cc(C2CCN(CCS(C)(=O)=O)CC2)ccc1Nc1ncc(Cl)c(NCc2cccc3c2C(C)(C)C(=O)N3)n1` [Example I-216], in that order: 2 nM and 50 to 250 nM.
With `COCCN1CCC[C@@H](c2ccc(Nc3ncc(Br)c(NCc4cccc5c4C(C)(C)C(=O)N5)n3)c(C)c2)C1` [Example I-362], the IC50 in assay [1] is 0.3 nM. Moreover, the EC50 in assay [2] was under 50 nM.
The corresponding values for `COCC(=O)N1CCC(c2ccc(Nc3ncc(Cl)c(NCc4cccc5c4C(C)(C)C(=O)N5)n3)c(C)c2)CC1` [Example I-292] are 5 nM and 50 to 250 nM.
Take `Cc1cc(C2CCN(C(=O)CN(C)C)CC2)ccc1Nc1ncc(Br)c(NCc2cccc3c2C(C)(C)C(=O)N3)n1` [Example I-57]: in assay [1], the IC50 is 0.76 nM. The EC50 in assay [2] is under 50 nM.
Consider `COCCN1CCC(c2ccc(Nc3ncc(Br)c(NCc4cccc5c4C(C)(C)C(=O)N5)n3)c(C)c2)CC1` [Example I-221], for which, in assay [1], the IC50 was 0.98 nM. Besides, in assay [2], the EC50 was under 50 nM.
Turning to `CN(C)CC(=O)N1CCC(n2cc(Nc3ncc(Cl)c(NCc4cccc5c4C(C)(C)C(=O)N5)n3)cn2)CC1` [Example I-66], the IC50 in assay [1] was found to be 6 nM. In assay [2], the EC50 lay in the range of 250 to 3000 nM.
`CCc1cc(C2CCN(CCOC)CC2)ccc1Nc1ncc(Br)c(NCc2cccc3c2C(C)(C)C(=O)N3)n1` [Example I-367]: the IC50 in assay [1] was 3 nM. In addition, the half-maximal effective concentration (EC50) in assay [2] was under 50 nM.
Take `Cc1cc(C2CCN(CC(N)=O)CC2)ccc1Nc1ncc(Cl)c(NCc2cccc3c2C(C)(C)C(=O)N3)n1` [Example I-220]: the IC50 in assay [1] was 2 nM. Besides, the EC50 in assay [2] lay within 50 to 250 nM.
The corresponding values for `COCCN1CCC(n2cc(Nc3ncc(Cl)c(NCc4cccc5c4C(C)(C)C(=O)N5)n3)cn2)CC1` [Example I-215] are 12 nM and 250 to 3000 nM.
With `CC1(C)C(=O)Nc2cccc(CNc3nc(Nc4ccc(C5CCN(CCCF)CC5)cc4)ncc3Br)c21` [Example I-212], the half-inhibitory concentration (IC50) in assay [1] is 3 nM. In addition, in assay [2], the EC50 was 50 to 250 nM.
For `Cc1cc(Nc2ncc(Br)c(NCc3cccc4c3C(C)(C)C(=O)N4)n2)ccc1C1CCN(CC(C)(C)O)CC1` [Example I-324], in that order: 0.1 nM and under 50 nM.
The corresponding values for `Cc1cc(C2CCN(CCO)CC2)ccc1Nc1ncc(Cl)c(NCc2cccc3c2C(C)(C)C(=O)N3)n1` [Example I-217] are 1 nM and 50 to 250 nM.
The corresponding values for `Cc1cc(C2CCN(C(=O)C(C)(C)O)CC2)ccc1Nc1ncc(Cl)c(NCc2cccc3c2C(C)(C)C(=O)N3)n1` [Example I-297] are 9 nM and 50 to 250 nM.
`COc1cc(C2CCN(C(=O)CN(C)C)CC2)ccc1Nc1ncc(Br)c(NCc2cccc3c2C(C)(C)C(=O)N3)n1` [Example I-68]: the IC50 in assay [1] was 0.4 nM. In addition, the EC50 in assay [2] was under 50 nM.
Turning to `Cc1cc(C2CCN(C(=O)CN(C)C)CC2)ccc1Nc1ncc(Cl)c(NCc2cccc3c2C(C)(C)C(=O)N3)n1` [Example I-69], in assay [1], the IC50 came out at 1 nM. Further, the EC50 in assay [2] is under 50 nM.
The corresponding values for `CCc1cc(C2CCN(CC(C)(C)O)CC2)ccc1Nc1ncc(Cl)c(NCc2cccc3c2C(C)(C)C(=O)N3)n1` [Example I-378] are 6 nM and 50 to 250 nM.
The corresponding values for `Cc1cc(N2CCN(C)CC2)ccc1Nc1ncc(Cl)c(NCc2cccc3c2C(C)(C)C(=O)N3)n1` [Example I-330] are 3 nM and under 50 nM.
The corresponding values for `Cc1cc(C2CCN(CC#N)CC2)ccc1Nc1ncc(Cl)c(NCc2cccc3c2C(C)(C)C(=O)N3)n1` [Example I-375] are 9 nM and under 50 nM.
As to `Cc1c(Nc2ncc(C(F)(F)F)c(NCc3cccc4c3C(C)(C)C(=O)N4)n2)ccc(C2CCN(CC(C)(C)O)CC2)c1C` [Example I-313], the IC50 in assay [1] amounted to 0.5 nM. Besides, the concentration giving a half-maximal response (EC50) in assay [2] is under 50 nM.
Take `COCCN1CCC(c2ccc(Nc3ncc(Cl)c(NCc4cccc5c4C(C)(C)C(=O)N5)n3)c(C)c2)CC1` [Example I-218]: the IC50 in assay [1] is 1 nM. In addition, the EC50 in assay [2] was under 50 nM.
Regarding `CC1(C)C(=O)Nc2cccc(CNc3nc(Nc4ccc(C5CCCN(CC(O)C(F)(F)F)C5)cc4)ncc3Cl)c21` (racemic) [Example I-333], the half-maximal inhibitory concentration (IC50) in assay [1] was determined as 2 nM. In assay [2], the half-maximal effective concentration (EC50) was 250 to 3000 nM.
For the compound `COCCN1CCN(c2ccc(Nc3ncc(Cl)c(NCc4cccc5c4C(C)(C)C(=O)N5)n3)c(OC)c2)CC1` [Example I-386], in assay [1], the IC50 came out at 3 nM. Besides, in assay [2], the EC50 is under 50 nM.
On to `CC(C)(O)CN1CCC(c2ccc(Nc3ncc(Br)c(NCc4cccc5c4C(C)(C)C(=O)N5)n3)cc2)CC1` [Example I-210], for which the IC50 in assay [1] is 0.47 nM. The EC50 in assay [2] is under 50 nM.
The corresponding values for `COc1cc(N2CCN(C)CC2)ccc1Nc1ncc(Cl)c(NCc2cccc3c2C(C)(C)C(=O)N3)n1` [Example I-97] are 2 nM and under 50 nM.
As to `Cc1cc(C2CCN(CC(O)C(F)(F)F)CC2)ccc1Nc1ncc(Cl)c(NCc2cccc3c2C(C)(C)C(=O)N3)n1` (centres unmarked) [Example I-326], the IC50 in assay [1] is 2 nM. The EC50 in assay [2] was in the range of 50 to 250 nM.
The corresponding values for `CC(C)(O)CN1CCC(c2ccc(Nc3ncc(Cl)c(NCc4cccc5c4C(C)(C)C(=O)N5)n3)c(OC(F)F)c2)CC1` [Example I-342] are 3 nM and under 50 nM.
The corresponding values for `CNC(=O)CN1CCCC(c2ccc(Nc3ncc(Cl)c(NCc4cccc5c4C(C)(C)C(=O)N5)n3)c(C)c2)C1` (racemic) [Example I-383] are 2 nM and 50 to 250 nM.
The corresponding values for `CCNC(=O)N1CCC(c2ccc(Nc3ncc(Cl)c(NCc4cccc5c4C(C)(C)C(=O)N5)n3)c(C)c2)CC1` [Example I-293] are 10 nM and 50 to 250 nM.
For the compound `Cc1cc([C@H]2CCCN(CC(C)(C)O)C2)ccc1Nc1ncc(Br)c(NCc2cccc3c2C(C)(C)C(=O)N3)n1` [Example I-319], the IC50 in assay [1] stood at 2 nM. In addition, in assay [2], the EC50 was under 50 nM.
For `CC1(C)C(=O)Nc2cccc(CNc3nc(Nc4ccc(C5CCN(C(=O)C6CCCC(=O)N6)CC5)cc4)ncc3Br)c21` (centres unmarked) [Example I-53], in that order: 6 nM and 50 to 250 nM.
The corresponding values for `Cc1cc(C2CCCN(CC(C)(C)O)C2)ccc1Nc1ncc(Br)c(NCc2cccc3c2C(C)(C)C(=O)N3)n1` (racemic) [Example I-318] are 0.4 nM and under 50 nM.

Source of the values: patent publication US8546443B2, “Benzylic oxindole pyrimidines” (Boehringer Ingelheim International GmbH, priority 2010, dated 2013).
